# Source: patent US5691382A, “Inhibition of TNF production with matrix metaloproteinase inhibitors” (British Biotech Pharmaceuticals Limited, priority 1992, dated 1997)
# System: TNFα release from human monocytic cell line, U937
# Test: inhibition of TNFα release from PMA-stimulated human monocytic cell line U937 (18 h, ELISA)
# Assay type: cell-based
# Conditions: U-937, PMA 50 nM, U937 cells, 18 hours at 37° C., reported by Group A/B/C, read-out: IC50 (concentration which inhibits the release of TNFα by 50% relative to the control culture)
# Experimental: Metalloproteinase inhibitors can prevent the release of TNF from PMA-stimulated human monocytic cell line U937.
# The ability of representative compounds, which are inhibitors of metalloproteinases, to inhibit the release of TNF was investigated. The assay is based on the ability of phorbol myristate acetate (PMA) to stimulate the release of TNFα from a human monocytic cell line, U937.
# U937 cells cultured in RPMI 1640 medium +5% foetal calf serum were centrifuged at 1000×g for 5 minutes and then resuspended in medium at 2×10^6 /ml. 1 ml of cell suspension was aliquoted into individual wells of 24-well plates. Test compounds were dissolved in dimethyl sulphoxide (DMSO) at a stock concentration of 100 mM, then diluted to 50×the final required concentration with RPMI 1640 medium. 20 μl of the diluted compounds were added to U937 cells in duplicate wells. TNFα release was stimulated by addition of PMA to the cells at a final concentration of 50 nM. Appropriate control cultures were set up in duplicate. The plates were incubated for 18 hours at 37° C., 5% CO2, then centrifuged at 1000 ×g for 5 minutes. A specific ELISA for TNFα obtained from British Bio-technology Products Limited, Abingdon, England was used to measure TNFα levels in the culture supernatants according to the protocol supplied.
# The average concentration of test compound which inhibits the release of TNFα by 50% relative to the control culture was assessed as greater than 90 μM, in the range 10 μM-90 μM, or less than 10 μM.
row,SMILES,IC50 [µM]
1,"CNC(=O)[C@H](Cc1ccc(OC)cc1)NC(=O)[C@H](CC(C)C)[C@H](C)C(=O)NO [Compound 1, 3R-(2-(4-methoxyphenyl)-1S-methylcarbamoyl-ethylcarbamoyl)-2S,5-dimethyl-hexanohydroxamic acid]",< 10
2,"CNC(=O)[C@H](Cc1ccccc1)NC(=O)[C@H](CC(C)C)[C@H](CSc1ccccc1)C(=O)NO [Compound 2, 2S-(phenylsulfanylmethyl)-3R-(2-phenyl-1S-methylcarbamoyl-ethylcarbamoyl)-5-methyl-hexanohydroxamic acid]",< 10
3,"CNC(=O)[C@H](Cc1ccccc1)NC(=O)[C@H](CC(C)C)[C@H](CSc1cccs1)C(=O)NO [Compound 3, 2S-(thien-2-ylsulfanylmethyl)-3R-(2-phenyl-1S-methylcarbamoyl-ethylcarbamoyl)-5-methyl-hexanohydroxamic acid]",< 10
4,"CNC(=O)[C@H](Cc1ccc(OC)cc1)NC(=O)[C@@H](CC(C)C)[C@H](C)C(=O)NO [Compound 69, 3S-(2(4-methoxyphenyl)-1S-methylcarbamoyl-ethylcarbamoyl)-2S,5-dimethyl-hexanohydroxamic acid]",10 to 90
5,"CNC(=O)[C@H](Cc1ccc(OC)cc1)NC(=O)[C@@H](CC(=O)NO)CC(C)C [Compound 70, 3R-(2(4-methoxyphenyl)-1S-methylcarbamoyl-ethylcarbamoyl)-5-methyl-hexanohydroxamic acid]",10 to 90
6,"COc1ccc(C[C@H](NC(=O)[C@@H](CC(=O)NO)CC(C)C)C(=O)N(C)C)cc1 [Compound 100, 3R-(2-(4-methoxyphenyl)-1S-dimethylcarbamoyl-ethylcarbamoyl)-5-methyl-hexanohydroxamic acid]",> 90
7,"CC(C)C[C@H](CC(=O)NO)C(=O)NC1Cc2ccccc2NC1=O (stereo partly drawn) [Compound 101, 3R-(2-oxo-1,2,3,4-tetrahydro-quinoli-3-ylcarbamoyl)-5-methyl-hexanohydroxamic acid]",> 90

# System: TNF α
# Test: inhibition of endotoxin (LPS) induced TNF production in vivo in anaesthetised rats
# Design: species or system Male CD rats
# Conditions: rat, 10 mg.kg^-1 intraperitoneally, 1 hour prior to LPS
# Experimental: Test compounds were assessed for their ability to inhibit release of endotoxin induced TNF production in vivo.
# (§1) Male CD rats (Charles River, UK) weighing between 300 g-400 g were anaesthetised with an intra-peritoneal injection of a mixture of 62.5 mg.kg^-1 thiopental and 22.5 mg.kg^-1 sodium pentobarbitone (Thiopental, Sigma Chemical Co., UK; Sodium pentobarbitone (Sagatal), May and Baker., UK). The trachea was exposed and cannulated to allow spontaneous respiration through a patent airway. The left jugular vein was exposed and cannulated for the administration of LPS. The right femoral artery was exposed and cannulated for withdrawal of blood samples. Blood samples (1 ml) were removed 5 minutes prior to bolus administration of either LPS (E. coil serotype 0111:b4, Difco Laboratories, USA) or saline (NaCL 0.9% w/v) and at intervals of 1 hour and 2 hours after LPS. Removed blood was replaced with equal amounts of saline.
# The peak of TNF release was at the 1 hour timepoint. TNF levels were expressed in units/ml where 1 unit is the equivalent of 1 pg of mouse TNF α.
# (§2) Rat serum TNF levels were measured using a mouse TNF α reference standard. The commercial ELISA kits were from Genzyme.
# Test compounds were administered intraperitoneally to anaesthetised rats at a dose of 10 mg.kg^-1, 1 hour prior to LPS administration.
# The results are expressed as the % inhibition of maximal TNF elevation relative to control: […]
row,SMILES,% Inhibition of Maximal TNF Elevation relative to control [%]
1,"CNC(=O)[C@H](Cc1ccc(OC)cc1)NC(=O)[C@H](CC(C)C)[C@H](C)C(=O)NO [Compound 1, 3R-(2-(4-methoxyphenyl)-1S-methylcarbamoyl-ethylcarbamoyl)-2S,5-dimethyl-hexanohydroxamic acid]",0
2,"CNC(=O)[C@H](Cc1ccc(NC(C)=O)cc1)NC(=O)[C@@H](CC(=O)NO)CC(C)C [Compound 23, 3R-(2-(4-acetamidophenyl)-1S-methylcarbamoyl-ethylcarbamoyl)-5-methyl-hexanohydroxamic acid]",35
3,"CNC(=O)[C@H](Cc1ccc(OC)cc1)NC(=O)[C@@H](CC(=O)NO)CC(C)C [Compound 70, 3R-(2(4-methoxyphenyl)-1S-methylcarbamoyl-ethylcarbamoyl)-5-methyl-hexanohydroxamic acid]",37
4,"CC(C)C[C@H](CC(=O)NO)C(=O)N[C@@H](Cc1ccccc1)C(=O)NCCCN1CCCC1=O [Compound 74, 3R-(2-phenyl-1S-[2-oxo-pyrolid-1-yl]propylcarbamoyl-ethylcarbamoyl)-5-methyl-hexanohydroxamic acid]",28
5,"CNC(=O)[C@H](Cc1ccccc1)NC(=O)[C@H](CCc1ccccc1)CC(=O)NO [Compound 87, 3R-(2-phenyl-1S-methylcarbamoyl-ethylcarbamoyl)-5-phenyl-pentanohydroxamicacid]",4
6,"CNC(=O)[C@@H](NC(=O)[C@@H](CC(=O)NO)CC(C)C)C(C)(C)C [Compound 88, 3R-(2,2-dimethyl-1S-methylcarbamoyl-propylcarbamoyl)-5-methyl-hexanohydroxamic acid]",66
7,"CCOC(=O)CNC(=O)[C@H](CC(C)C)NC(=O)[C@H](CC(C)C)[C@H](CCCCN1C(=O)c2ccccc2C1=O)C(=O)NO [Compound 93, 2S-(4-phthalimido-butyl)-3R-(3-methyl-1S-ethoxycarbonylmethylcarbamoyl-butylcarbamoyl)-5-methyl-hexanohydroxamic acid]",43
8,"CC(C)C[C@H](CC(=O)NO)C(=O)N[C@@H](Cc1ccccc1)C(=O)NCc1cccnc1 [Compound 98, 3R-(2-phenyl-1S-[pyrid-3-ylmethylcarbamoyl]-ethylcarbamoyl)-5-methyl-hexanohydroxamic acid]",28
9,"CNC(=O)[C@H](Cc1ccccc1)NC(=O)[C@H](CC(C)C)[C@H](CS(=O)(=O)c1cccs1)C(=O)NO [Compound 99, 2S-(thien-2-ylsulfonylmethyl)-3R-(2-phenyl-1S-methylcarbamoyl-ethylcarbamoyl)-5-methyl-hexanohydroxamic acid]",55

# System: TNF α
# Test: variation: infusion of compound before LPS, inhibition of TNF elevation in vivo
# Design: species or system Male CD rats
# Conditions: rat, infusion 1 mg/kg/hr, 15 minutes prior to LPS 500 μg.kg^-1, for 2 hours
# Experimental: as §1, §2
row,SMILES,inhibition of maximal TNF elevation relative to control [%]
1,"CNC(=O)[C@H](Cc1ccc(OCC(=O)O)cc1)NC(=O)[C@H](CC(C)C)[C@H](CSc1cccs1)C(=O)NO [Compound 29, 2S-(thien-2-ylsulphanylmethyl)-3R-(2-(4-carboxymethoxyphenyl)-1S-methylcarbamoyl-ethylcarbamoyl)-5-methyl-hexanohydroxamic acid]",60
